We go through eight molecules from PubChem BioAssay (NCI).

Some test systems named below: SNB-19 CNS; SF-295 CNS; IGROV1 ovarian; ACHN renal; SF-539 CNS; HCT-116 colon; HT29 colon; NCI-H460 lung; KM12 colon; MALME-3M melanoma.
Holding throughout (test): DTP human tumour cell line panel, 48 h

One may read the GI50 as the concentration at which growth is held to half of that of the control. What is called TGI is the concentration giving total growth inhibition. A higher TGI goes with lower sensitivity of the cells.

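Test compounds were applied to cells in 96-well plates for 48 hours at 5 doses. At the GI50, growth is halved. TGI: total growth inhibition.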 A value given as a limit tells only on which side of the number the result lay.

On to `NC(=N\N=C/c1ccc(O)cc1)/C(N)=N\N=C/c1ccc(O)cc1`, for which the GI50 was 62.5 µM in the assay with SNB-19 CNS; 3.3 µM in the assay on SF-295 CNS; greater than 59.6 µM with IGROV1 ovarian; 3.85 µM in the assay with ACHN renal; 3.99 µM in the assay on SF-539 CNS; greater than 100 µM in the assay on HCT-116 colon. The GI50 with HT29 colon is greater than 100 µM; with NCI-H460 lung it was 13.8 µM; in the assay on KM12 colon, 1.75 µM; in the assay with MALME-3M melanoma, greater than 100 µM. For the same molecule, the TGI in the assay with SNB-19 CNS, with SF-295 CNS, in the assay on IGROV1 ovarian, in the assay on ACHN renal, with SF-539 CNS and in the assay with HCT-116 colon was greater than 100 µM each time. Moreover, the TGI with HT29 colon, in the assay on NCI-H460 lung, in the assay on KM12 colon and with MALME-3M melanoma was greater than 100 µM in each case.
Regarding `CCCCNNC(=O)c1ccc(Br)cc1`, the GI50 is 11.2 µM in the assay with SNB-19 CNS; 2.54 µM in the assay on SF-295 CNS; 8.35 µM in the assay with IGROV1 ovarian; 2.67 µM in the assay with ACHN renal; 1.76 µM in the assay with SF-539 CNS; 1.47 µM with HCT-116 colon. For the same molecule, the GI50 in the assay with HT29 colon is 1.92 µM; in the assay with NCI-H460 lung it was 2.97 µM; in the assay on KM12 colon, 7.26 µM; with MALME-3M melanoma, 1.7 µM. In addition, the TGI was greater than 50 µM with SNB-19 CNS; 14.7 µM in the assay on SF-295 CNS; greater than 50 µM with IGROV1 ovarian; greater than 36.1 µM in the assay with ACHN renal; greater than 50 µM in the assay with SF-539 CNS; 13.4 µM with HCT-116 colon. For the same molecule, the TGI in the assay on HT29 colon was greater than 39 µM; in the assay on NCI-H460 lung, greater than 50 µM; in the assay with KM12 colon it was greater than 50 µM; with MALME-3M melanoma, greater than 50 µM.
Turning to `CC(C)N(C(=O)c1cccc(C(=O)N(C(C)C)C(C)C)c1)C(C)C`, the TGI in the assay on SNB-19 CNS, in the assay with SF-295 CNS, in the assay on IGROV1 ovarian, in the assay with ACHN renal, in the assay with SF-539 CNS and in the assay on HCT-116 colon was greater than 100 µM in each case. Besides, the TGI in the assay on HT29 colon, with NCI-H460 lung, in the assay with KM12 colon and in the assay with MALME-3M melanoma was greater than 100 µM throughout.
`O=[N+]([O-])c1ccc(NN=C2CN3CCN(C2)c2ccccc23)c([N+](=O)[O-])c1`: the TGI in the assay on SNB-19 CNS, in the assay on SF-295 CNS, in the assay with IGROV1 ovarian, with ACHN renal, in the assay with SF-539 CNS and in the assay on HCT-116 colon was greater than 100 µM throughout. The TGI in the assay with HT29 colon, in the assay on NCI-H460 lung, in the assay on KM12 colon and in the assay with MALME-3M melanoma was greater than 100 µM in each case.
Consider `[2H]C([2H])([2H])NC(=O)c1nnc(NC(=O)C2CC2)cc1Nc1cccc(-c2ncn(C)n2)c1OC`, for which the GI50 in the assay on SNB-19 CNS was greater than 100 µM; in the assay on SF-295 CNS, 53.4 µM; with IGROV1 ovarian it was 6.96 µM; in the assay on ACHN renal it was 5.53 µM; in the assay on SF-539 CNS, 61.1 µM; with HCT-116 colon, 9.79 µM. Besides, the GI50 with HT29 colon is 44.6 µM; in the assay with NCI-H460 lung, greater than 100 µM; in the assay with KM12 colon, 32.1 µM; with MALME-3M melanoma it was 98 µM. The TGI with SNB-19 CNS, with SF-295 CNS, in the assay on IGROV1 ovarian, in the assay on ACHN renal, in the assay on SF-539 CNS and in the assay on HCT-116 colon was greater than 100 µM throughout. Further, the TGI in the assay on HT29 colon, in the assay with NCI-H460 lung, in the assay on KM12 colon and with MALME-3M melanoma was greater than 100 µM throughout.
In the case of `CN(C)c1ccc(Nc2c3ccccc3nc3ccccc23)cc1`, the GI50 in the assay with SNB-19 CNS is 1.63 µM; in the assay with SF-295 CNS it was 0.579 µM; with IGROV1 ovarian, 0.59 µM; in the assay on ACHN renal, 0.532 µM; in the assay with SF-539 CNS, 1.72 µM; in the assay with HCT-116 colon, 0.38 µM. Further, the GI50 in the assay with HT29 colon is 0.53 µM; in the assay with NCI-H460 lung it was 0.367 µM; with KM12 colon, 1.32 µM; in the assay with MALME-3M melanoma, 1.2 µM. The concentration for total growth inhibition (TGI) with SNB-19 CNS came to 9.32 µM; in the assay on SF-295 CNS it was 2.75 µM; with IGROV1 ovarian, 2.91 µM; in the assay with ACHN renal, 2.27 µM; in the assay on SF-539 CNS it was 8.33 µM; in the assay with HCT-116 colon, 1.7 µM. Also, the TGI with HT29 colon came out at 2.34 µM; in the assay on NCI-H460 lung, 1.72 µM; in the assay with KM12 colon, 4.54 µM; with MALME-3M melanoma, 3.03 µM.
In the case of `c1ccc(-c2nn3c(c2-c2ccnc4cc(OCCN5CCOCC5)ccc24)CCC3)nc1`, the GI50 is greater than 100 µM in the assay on SNB-19 CNS; greater than 100 µM with SF-295 CNS; 29.6 µM in the assay on IGROV1 ovarian; 36.3 µM in the assay on ACHN renal; greater than 100 µM in the assay with SF-539 CNS; 31 µM in the assay with HCT-116 colon. The GI50 in the assay with HT29 colon is 30.3 µM; with NCI-H460 lung, 33.6 µM; in the assay on KM12 colon it was 59.4 µM; in the assay with MALME-3M melanoma, 90.3 µM. The concentration for total growth inhibition (TGI) in the assay on SNB-19 CNS, with SF-295 CNS, in the assay on IGROV1 ovarian, in the assay with ACHN renal, in the assay on SF-539 CNS and in the assay on HCT-116 colon was greater than 100 µM each time. In addition, the TGI in the assay on HT29 colon, in the assay with NCI-H460 lung, with KM12 colon and in the assay with MALME-3M melanoma was greater than 100 µM in each case.
As to `OC1(c2ccccc2)C2CC=CC2C1(c1ccccc1)c1ccccc1` (stereo not given), the TGI is greater than 100 µM in the assay on SNB-19 CNS; greater than 100 µM in the assay with SF-295 CNS; 48.9 µM in the assay with IGROV1 ovarian; greater than 100 µM with ACHN renal; greater than 100 µM in the assay on SF-539 CNS; greater than 100 µM with HCT-116 colon. The concentration for total growth inhibition (TGI) with HT29 colon was 69.8 µM; in the assay with NCI-H460 lung, greater than 100 µM; in the assay with KM12 colon, greater than 100 µM; in the assay on MALME-3M melanoma, 53 µM.
